Results published in article PMC5986738, “Thiazole Amides, A Novel Class of Algaecides against Freshwater Harmful Algae” (Scientific Reports, 2018).
≈ marks a conversion by molar mass, not a printed value.

How the values were obtained:
S. obliqnus = test: Algicidal activity (growth inhibition, microplate, absorbance 650 nm) against S. obliqnus; format: cell-based; conditions: for IC50 value S. obliqnus: 96-hour IC50, mean ± SD
Experimental: (§1) According to the method established by Schrader et al.[42], algicidal activity of alkaloid (1) and its amide analogues (7–32), as well as their hydrochloric salts (7S–27S), was evaluated against three typical […] algae, S. obliqnus, M. aeruginosa, and C. Pyrenoidosa at different concentrations. After three algae species were inoculated, the variation of algae density over 7 days were recorded continuously. […] The wavelength at 650 nm was determined as ideal incident wavelength for the measurement of algae density. Three […] algae S. obliqnus, M. aeruginosa, and C. pyrenoidosa were offered by Freshwater algae culture collection of the institute of Hydrobiology (FACHB-collection). Each culture for three species was maintained separately in continuous, steady-state growth microplates, which were placed in a growth chamber held at 28 ± 1 °C and illuminated continuously under fluorescent lights at a photon flux density of […]. Absorbance values of each wells were measured by a Packard model Spectra Count microplate photometer.
(§2) Alkaloid (1) and its analogues (7–32), as well as their hydrochloric salts (7S–27S), were dissolved separately in DMSO to provide stock solution concentrations. Initially, each stock solution was aseptically pipetted into the bottom of separate wells (20 μL per well) in a 96-well microplate and the final test concentrations for each sample were 0, 0.78, 1.56, 3.12, 6.25, 12.5, and 25 μg/mL. Wells of control samples contained only unialgal culture. The solution of CuSO4 and Diuron at the same concentration were chose as the reference sample. Each experiment was performed at least three times. Through measuring the area values under the individual growth curves, the inhibitory rate (%) for the individual tested concentration was calculated according to the following equation (1):1 Ii=(Ac−Ai)/[…]×100% • Ii: inhibitory rate of biomass growth by toxicant concentration i (%) • Ac: average area under the growth curve by control sample • Ai: average area under the growth curve by test concentration i
(§3) Mean values of 96-hour IC50 were determined for each group of plates, and standard deviation were calculated and reported as the mean ± SD.
(§4) The IC50 values of all compounds against three freshwater algae species were calculated using SPSS v19.0, and the algicidal activities of alkaloid (1) and its amide analogues (7–32), as well as the corresponding hydrochloric salts (7S–27S) are listed in Table 1 and 2, respectively.

M. aeruginosa = test: Algicidal activity (growth inhibition, microplate, absorbance 650 nm) against M. aeruginosa; format: cell-based; conditions: for IC50 value M. aeruginosa: 96-hour IC50, mean ± SD; for growth inhibitory ratio: 3.13 μg/mL
Experimental: as §1, §2, §3, §4
Currently, M. aeruginosa appears to be the most harmful algae existing in the freshwater bodies in the developing countries. To investigate growth inhibitory potential of this class of thiazole amides on M. aeruginosa, thiazole amide (10) and its hydrochloric acid salt (10S) were subject to further survey for the optimal inhibition time and concentration (Figs 3 and 4). […] The variation of growth inhibitory ratios of compounds (10) and (10S) against M. aeruginosa at the lowest complete inhibition concentration is illustrated in Fig. 4. As observed, for administration of thiazole amide (10), the growth inhibitory ratios after 96 and 120 hours increase gradually to 79% and 92%, respectively. Under the same experimental conditions, growth inhibitory ratios for the salt (10S) are 82% and 88%, respectively.

C. pyrenoidosa = test: Algicidal activity (growth inhibition, microplate, absorbance 650 nm) against C. pyrenoidosa; format: cell-based, Chlorella pyrenoidosa; conditions: for IC50 value C. pyrenoidosa: 96-hour IC50, mean ± SD
Experimental: as §1, §2, §3, §4

SMILES	IC50 value S. obliqnus (S. obliqnus) [µg/mL]	IC50 value M. aeruginosa (M. aeruginosa) [µg/mL]	IC50 value C. pyrenoidosa (C. pyrenoidosa) [µg/mL]	growth inhibitory ratio (M. aeruginosa; after 96 hours) [%]	growth inhibitory ratio (M. aeruginosa; after 120 hours) [%]	IC50 (S. obliqnus; 96 h, read-out: IC50 value S. obliqnus) [µg/mL]	IC50 (M. aeruginosa; Microcystis aeruginosa, 96 h, read-out: IC50 value M. aeruginosa) [µg/mL]	IC50 (C. pyrenoidosa; Auxenochlorella pyrenoidosa, 96 h, read-out: IC50 value C. pyrenoidosa) [µg/mL]
C[C@H](N)c1nc(C(=O)Nc2ccccc2)cs1.Cl [7S]	0.14 ± 0.06	1.33 ± 0.16	2.54 ± 0.28					
C[C@H](N)c1nc(C(=O)Nc2ccc(F)cc2)cs1.Cl [8S]	1.14 ± 0.09	3.00 ± 0.12	2.69 ± 0.23					
C[C@H](N)c1nc(C(=O)Nc2ccc(Cl)cc2)cs1.Cl [9S]	4.00 ± 0.34	1.18 ± 0.21	0.40 ± 0.10					
C[C@H](N)c1nc(C(=O)Nc2ccc(Br)cc2)cs1.Cl [10S]				82	88			
Cc1ccc(NC(=O)c2csc([C@H](C)N)n2)cc1.Cl [11S]	6.83 ± 0.45	4.34 ± 0.36	3.37 ± 0.28					
COc1ccc(NC(=O)c2csc([C@H](C)N)n2)cc1.Cl [12S]	3.16 ± 0.29	1.40 ± 0.18	2.88 ± 0.39					
C[C@H](N)c1nc(C(=O)Nc2cccc(Cl)c2)cs1.Cl [14S]	2.01 ± 0.19	0.79 ± 0.08	0.66 ± 0.06					
C[C@H](N)c1nc(C(=O)Nc2cccc(Br)c2)cs1.Cl [15S]	1.59 ± 0.16	2.96 ± 0.26	2.75 ± 0.30					
Cc1cccc(NC(=O)c2csc([C@H](C)N)n2)c1.Cl [16S]	4.07 ± 0.39	1.95 ± 028	1.82 ± 0.14					
C[C@H](N)c1nc(C(=O)Nc2cccc(C(F)(F)F)c2)cs1.Cl [17S]	1.59 ± 0.23	3.09 ± 0.42	2.39 ± 0.24					
C[C@H](N)c1nc(C(=O)Nc2ccccc2F)cs1.Cl [18S]	1.12 ± 0.09	0.26 ± 0.01	0.27 ± 0.09					
C[C@H](N)c1nc(C(=O)Nc2ccccc2Cl)cs1.Cl [19S]	0.14 ± 0.02	3.07 ± 0.34	2.50 ± 0.16					
C[C@H](N)c1nc(C(=O)Nc2ccccc2Br)cs1.Cl [20S]	0.68 ± 0.06	1.23 ± 0.12	0.41 ± 0.04					
Cc1ccccc1NC(=O)c1csc([C@H](C)N)n1.Cl [21S]	13.63 ± 1.20	4.93 ± 045	5.15 ± 0.56					
COc1ccccc1NC(=O)c1csc([C@H](C)N)n1.Cl [22S]	1.74 ± 0.24	1.12 ± 0.16	0.35 ± 0.02					
C[C@H](N)c1nc(C(=O)Nc2ccc(OC(F)(F)F)cc2)cs1.Cl [23S]	4.68 ± 0.38	4.45 ± 0.58	0.66 ± 0.03					
C[C@H](N)c1nc(C(=O)Nc2ccc(Cl)c(Cl)c2)cs1.Cl [24S]	5.59 ± 0.78	5.18 ± 0.66	3.42 ± 0.32					
Cc1cc(NC(=O)c2csc([C@H](C)N)n2)ccc1F.Cl [25S]	16.62 ± 1.48	1.79 ± 0.22	1.59 ± 0.19					
CCOC(=O)c1ccc(NC(=O)c2csc([C@H](C)N)n2)cc1.Cl [26S]	10.60 ± 1.18	2.46 ± 0.23	2.38 ± 0.32					
O=S(=O)([O-])[O-].[Cu+2] [CuSO4, reference compound]	0.99 ± 0.06	1.29 ± 0.02	1.56 ± 0.09					
CN(C)C(=O)Nc1ccc(Cl)c(Cl)c1 [Diuron, reference compound]						0.79 ± 0.08 (≈ 3.39 µM)	1.35 ± 0.15 (≈ 5.79 µM)	1.42 ± 0.27 (≈ 6.09 µM)
